From ChEMBL document CHEMBL1201862, “PubChem BioAssay data set” (2004)
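Values below derive from 48-hour exposures of cells grown in 96-well plates, with endpoints linearly interpolated between the two concentrations bracketing the appropriate inhibition level. GI50: concentration for 50% inhibition of growth.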 Active and inactive are the calls of the source. Cut-off read from the data, not from the text of the source: active = GI50 up to about 1.1 µM and inactive = higher.

Assays:
Assay in all cases: inhibition of tumour cell growth, NCI panel, 48 h
[1] = test system: PC-3
[2] = test system: A549
[3] = test system: UACC-62
[4] = test system: MDA-MB-435
[5] = test system: A498
[6] = test system: MCF7
[7] = test system: NCI-H460
[8] = test system: SK-MEL-2
[9] = test system: M14
[10] = test system: SW-620
[11] = test system: HOP-62
[12] = test system: U-251
[13] = test system: SNB-75
[14] = test system: SF-268
[15] = test system: UO-31
[16] = test system: Hs-578T
[17] = test system: CAKI-1
[18] = test system: NCI-H23
[19] = test system: HCT-116
[20] = test system: HCT-15

Row | SMILES | GI50 [1] | GI50 [2] | GI50 [3] | GI50 [4] | GI50 [5] | GI50 [6] | GI50 [7] | GI50 [8] | GI50 [9] | GI50 [10] | GI50 [11] | GI50 [12] | GI50 [13] | GI50 [14] | GI50 [15] | GI50 [16] | GI50 [17] | GI50 [18] | GI50 [19] | GI50 [20]
1 | Cc1nc2c(=O)n(C)c(=O)n(C)c2o1 | > 100 µM (inactive) | > 100 µM (inactive) | > 100 µM (inactive) | > 100 µM (inactive) | > 100 µM (inactive) | > 10 µM (inactive) | > 100 µM (inactive) | > 100 µM (inactive) | > 100 µM (inactive) | > 100 µM (inactive) | > 100 µM (inactive) | > 100 µM (inactive) | > 100 µM (inactive) | > 100 µM (inactive) | > 100 µM (inactive) | > 100 µM (inactive) | > 100 µM (inactive) | > 100 µM (inactive) | > 100 µM (inactive) | > 100 µM
2 | O=C1c2ccccc2C(=O)N1CCCC(=O)n1cc(F)c(=O)[nH]c1=O | 30.1 µM (inactive) | 3.6 µM (inactive) | 23.6 µM (inactive) | > 37.1 µM (inactive) | 4.69 µM (inactive) | 6.21 µM (inactive) | 2.68 µM (inactive) | > 100 µM (inactive) | 14.5 µM (inactive) | > 72.6 µM (inactive) | 8.26 µM (inactive) | > 100 µM (inactive) | 37 µM (inactive) | 69.2 µM (inactive) | 11.4 µM (inactive) | > 100 µM (inactive) | 6.05 µM (inactive) | 11.9 µM (inactive) | 6.24 µM (inactive) | 8.41 µM
3 | Nc1nc(I)nc2c1ncn2C1OC(COS(N)(=O)=O)C(O)C1O (stereo not given) | < 0.01 µM (active) | 0.0275 µM (active) | 0.0226 µM (active) | < 0.01 µM (active) | < 0.01 µM (active) | < 0.01 µM (active) | 0.0126 µM (active) | < 0.01 µM (active) | < 0.0104 µM (active) | 0.0235 µM (active) | 0.0218 µM (active) | < 0.01 µM (active) | < 0.01 µM (active) | < 0.01 µM (active) | 0.0187 µM (active) | < 0.01 µM (active) | 0.0336 µM (active) | < 0.01 µM (active) | < 0.01 µM (active) | 0.0176 µM
4 | COc1ccc(/N=N/c2ccc3oc(=O)c(C(=O)Nc4ccccc4)cc3c2)cc1 | > 6.01 µM (inactive) | > 10 µM (inactive) | > 10 µM (inactive) | > 10 µM (inactive) | > 10 µM (inactive) | > 9.29 µM (inactive) | > 10 µM (inactive) | > 10 µM (inactive) | > 10 µM (inactive) | > 10 µM (inactive) | > 10 µM (inactive) | > 10 µM (inactive) | > 9.31 µM (inactive) | > 8.32 µM (inactive) | 5.52 µM (inactive) | > 10 µM (inactive) | > 10 µM (inactive) | > 10 µM (inactive) | > 10 µM (inactive) | > 9.23 µM
5 | C[C@H]1[C@H](C)CC[C@]2(C(=O)OC3OC(CO)C(O)C(O)C3O)CC[C@]3(C)C(=CC[C@@H]4[C@@]5(C)C[C@@H](O)[C@@H]6OC(=O)c7cc(O)c(O)c(O)c7-c7c(cc(O)c(O)c7O)C(=O)OC[C@@]6(CO)[C@@H]5CC[C@]43C)[C@H]12 (stereo not given in full) | > 88.3 µM (inactive) | > 100 µM (inactive) | > 87.7 µM (inactive) | 19.6 µM (inactive) | > 100 µM (inactive) | 18.6 µM (inactive) | 98.6 µM (inactive) | > 100 µM (inactive) | > 100 µM (inactive) | 28.6 µM (inactive) | > 100 µM (inactive) | 60.4 µM (inactive) | > 100 µM (inactive) | > 100 µM (inactive) | 43.1 µM (inactive) | > 100 µM (inactive) | 47.8 µM (inactive) | > 100 µM (inactive) | 46.7 µM (inactive) | 76.7 µM
6 | CS(=O)(=O)OCCN(CCOS(C)(=O)=O)c1ccc(/C=N/c2ccc(-c3csc(Cc4ccccc4)n3)cc2)c(Cl)c1 | 22.5 µM (inactive) | 11.6 µM (inactive) | 6.5 µM (inactive) | 21 µM (inactive) | 0.102 µM (active) | 2.65 µM (inactive) | 0.387 µM (active) | > 46 µM (inactive) | 25.3 µM (inactive) | 31.8 µM (inactive) | 13 µM (inactive) | 28.2 µM (inactive) | 15.5 µM (inactive) | 27.4 µM (inactive) | 26.4 µM (inactive) | 28.4 µM (inactive) | 1.23 µM (inactive) | 23.5 µM (inactive) | 19.5 µM (inactive) | 30.3 µM
7 | CC1=CC(=O)[C@@H](O)[C@]2(C)[C@H]3[C@@]4(O)OC[C@]35[C@H]([C@@H](C)[C@H]4O)[C@@H](OC(=O)C(C)(C)CO)C(=O)O[C@@H]5C[C@@H]12 | 0.0698 µM (active) | 2.51 µM (inactive) | 0.0838 µM (active) | 0.12 µM (active) | 1.42 µM (inactive) | < 0.0189 µM (active) | 0.0568 µM (active) | < 0.0453 µM (active) | < 0.0431 µM (active) | 0.229 µM (active) | 0.0989 µM (active) | 0.0281 µM (active) | 0.045 µM (active) | < 0.0379 µM (active) | 0.316 µM (active) | 0.046 µM (active) | 1.08 µM (active) | < 0.0179 µM (active) | < 0.0199 µM (active) | 0.292 µM
